This passage reports pKa results from patent US6569612B1, “Photographic element containing a high-dye-yield coupler for producing a yellow hue” (Eastman Kodak Company, priority 2001, dated 2003).

SMILES strings stand for the structures. Like-named read-outs stand apart in the source and are kept apart here.

This data set can be described thus: Measuring pKas of couplers in TRITON X-100 media. It is filed as physicochemical. The method, then: Procedure for Measuring pKas of Couplers in TRITONX-100 Media:
A solution of the coupler that was ca. 5E-3 M was made with 5.0 mL of dimethyl sulfoxide solvent. A 0.50-mL aliquot of the solution was added to 3.18 g of Triton X- 100 surfactant in a 50-mL volumetric flask. Then ca. 25 mL of ca. 40-deg C. distilled water was added while swirling vigorously. The solution was then cooled to ambient temperature and diluted to 50 mL with water. Various phosphate buffer solutions as potassium salts were prepared with pHs ranging from 3.73 to 12 with ionic strength of 0.75. Ionic strength computations were done using the three pKas for phosphoric acid. A 2.0-mL aliquot of the stock coupler solution was mixed with 2.0 mL of chosen buffer in a 5-dram vial. […] A wavelength between 310 and 350 nm was typically chosen. The pH of the mixture was then measured with a CORNING Model 125 meter. A baseline reference blank spectrum was run with TRITON X-100 (surfactant) and pH 7 buffer. The data of corrected absorbances (differences from the blank spectrum) and pHs were used to compute by least-squares the pKa and the other two unknowns of high and low limiting densities. The pKa measurements are made with an experimental uncertainty within ±0.10, which depends on sources of material, the number of experimental points, number of replicates, and the like.

Setting [1] is: Table 8, TRITON X-100 media, read-out: pKa.
Setting [2] is: Table 7, TRITON X-100 media, read-out: pKa.
The mark [3] stands for this setting: Table 5, TRITON X-100 media, read-out: pKa.
Setting [4] is: Table 3, TRITON X-100 media, read-out: pKa.
The mark [5] stands for this setting: Table 4, TRITON X-100 media, read-out: pKa.

What is called pKa is the pH at which an ionisable group is half protonated.

Turning to `CCCCCCCCCCCCCCCCNS(=O)(=O)c1ccc(Cl)c(NC(=O)C(OC(=O)N(CCCCCCCCCCCC)c2ccc(/C=C(\C#N)c3nc4ccccc4o3)c(C)c2)C(=O)c2ccc(OC)cc2)c1` (stereo not drawn) [CY-12, reference compound], the pKa (standard measurement, read-out: pKa at the coupling site) stood at 8.7.

In the case of `CCCCCCCCCCCCS(=O)(=O)c1ccc(NC(=O)C(OC(=O)N(CC)c2ccc(/C=C(\C#N)c3nc4cc(C(C)(C)CC(C)(C)C)ccc4o3)c(C)c2)C(=O)c2ccc(Cl)cc2)c(Cl)c1` (stereo not drawn) [Coupler Y-11], under setting [1], the pKa came out at 7.

With `CCCCCCCCCCCCCCCCNS(=O)(=O)c1ccc(Cl)c(NC(=O)C(OC(=O)N(CCCC)c2ccc(/C=C(\C#N)c3nc4ccccc4o3)c(C)c2)C(=O)c2ccc(OC)cc2)c1` (stereo not drawn) [CY-13, reference compound], the pKa under setting [2] amounted to 8.8.

Turning to `CCCCCCCCCCCCS(=O)(=O)c1ccc(NC(=O)C(OC(=O)N(c2ccc(/C=C(\C#N)c3nc4ccccc4o3)c(C)c2)C2CCCC2)C(=O)c2ccc(Cl)cc2)c(Cl)c1` (stereo not drawn) [Coupler Y-10], the pKa under setting [1] turned out to be 7.2.

In the case of `CCC(C)(C)c1cc(C(C)(C)CC)c2oc(/C(C#N)=C/c3ccc(N(C(=O)OC(C(=O)Nc4ccc([N+](=O)[O-])cc4Cl)C(=O)c4ccccc4)C4CCCC4)cc3C)nc2c1` (stereo not drawn) [Coupler Y-5], the pKa under setting [3] amounted to 7.4.

Regarding `CCC(C)(C)c1cc(C(C)(C)CC)c2oc(/C(C#N)=C/c3ccc(N(C(=O)OC(C(=O)Nc4cc(CS(=O)(=O)c5ccccc5)ccc4Cl)C(=O)c4ccc(OC)cc4)C4CCCC4)cc3C)nc2c1` (stereo not drawn) [CY-4, reference compound], under setting [4], the pKa worked out at 10.6.

As for `CCCCCCCCCCCCOC(=O)c1ccc(Cl)c(NC(=O)C(OC(=O)N(C)c2ccc(/C=C(\C#N)c3nc4cc(C(C)(C)C)ccc4o3)c(C)c2)C(=O)c2ccc(OC)cc2)c1` (stereo not drawn) [CY-7, reference compound], the pKa under setting [4] was 9.1.

For `CCCCCCCCCCCCNS(=O)(=O)c1ccc(NC(=O)C(OC(=O)N(c2ccc(/C=C(\C#N)c3nc4ccccc4o3)c(C)c2)C2CCCC2)C(=O)c2ccccc2)c(Cl)c1` (stereo not drawn) [Coupler Y-9], under setting [2], the pKa was determined as 8.

For the compound `COc1ccc(C(=O)C(OC(=O)N(c2ccc(/C=C(\C#N)c3nc4cc(C(C)(C)C)ccc4o3)c(C)c2)C2CCCC2)C(=O)Nc2ccc([N+](=O)[O-])cc2Cl)cc1` (stereo not drawn) [Coupler Y-4], under setting [5], the pKa was determined as 8.2.

For `CCC(C)(C)c1cc(C(C)(C)CC)c2oc(/C(C#N)=C/c3ccc(N(C(=O)OC(C(=O)Nc4cc(CS(=O)(=O)c5ccc(O)cc5)ccc4Cl)C(=O)c4ccc(OC)cc4)C4CCCC4)cc3C)nc2c1` (stereo not drawn) [CY-5, reference compound], the pKa under setting [4] is 10.

Consider `CCCCCCCCCCCCS(=O)(=O)c1ccc(NC(=O)C(OC(=O)N(C)c2ccc(/C=C(\C#N)c3nc4cc(C(C)(C)C)ccc4o3)c(C)c2)C(=O)c2ccccc2)c(Cl)c1` (stereo not drawn) [Coupler Y-1], for which the pKa under setting [4] amounted to 7.4.

Regarding `CCCCCCCCCCCCS(=O)(=O)c1ccc(NC(=O)C(OC(=O)N(c2ccc(/C=C(\C#N)c3nc4cc(C(C)(C)C)ccc4o3)c(C)c2)C2CCCC2)C(=O)c2ccccc2)c(Cl)c1` (stereo not drawn) [Coupler Y-3], under setting [5], the pKa turned out to be 7.8.

For `CCCCCCCCCCCCNS(=O)(=O)c1ccc(NC(=O)C(OC(=O)N(c2ccc(/C=C(\C#N)c3nc4cc(C(C)(C)C)ccc4o3)c(C)c2)C2CCCC2)C(=O)c2ccc(OC)cc2)c(Cl)c1` (stereo not drawn) [CY-8, reference compound], under setting [3], the pKa is 9.5.

Turning to `CCCCCCCCCCCCCCCCNS(=O)(=O)c1ccc(Cl)c(NC(=O)C(OC(=O)N(C)c2ccc(/C=C(\C#N)c3nc4cc(C(C)(C)C)ccc4o3)c(C)c2)C(=O)c2ccc(OC)cc2)c1` (stereo not drawn) [Coupler Y-2], the pKa under setting [4] is 8.5.

Take `CCCCCCCCCCCCOC(=O)c1ccc(Cl)c(NC(=O)C(C(=O)c2ccc(OC)cc2)N2C(=O)C(OCC)N(Cc3ccccc3)C2=O)c1` (stereo not drawn) [CY-1, reference compound]: the pKa under setting [4] was 5.1.
